Converted amounts (≈) assume the structure as drawn. Like-named read-outs stand apart in the source and are kept apart here. The star is where a group is joined. Octanoyl = CCCCCCCC(=O)*
Assays:
[1] = tested on: Salmonella typhimurium and Clostridium botulinum; type: cell-based; conditions: food preservative; Example 16
[2] = tested on: Aspergillus niger (ATCC 16888); conditions: 22 h at 30° C.
in vitro = conditions: Vero cells (ATCC CCL81), non-infected
C. acidivorans = assay: Antimicrobial assay, bacterial paper mill isolates; type: cell-based, Comamonas acidivorans; conditions: paper mill isolate; TGE medium; 30° C.
Aeromonas = conditions: 18 h
Bacillus = assay: Antimicrobial assay, bacterial cooling tower isolates; type: cell-based; conditions: cooling tower isolate; TGE; 18 hr at 35° C.
[3] = tested on: Desulfovibrio desulfuricans (ATCC 7757)
X. maltophila = assay: Antimicrobial assay, bacterial paper mill isolates; type: cell-based, Xanthomonas maltophila; conditions: paper mill isolate; TGE medium; 37° C.
E. cloacae = assay: Antimicrobial assay, bacterial paper mill isolates; type: cell-based, Enterobacter cloacae; conditions: paper mill isolate; TGE medium; 30° C.
P. aeruginosa = assay: Antimicrobial assay, bacterial paper mill isolates; type: cell-based, Pseudomonas aeruginosa; conditions: paper mill isolate; TGE medium; 30° C.
E. coli = assay: Antimicrobial activity of peptide-containing fiber (textiles); conditions: Example 17
[4] = tested on: K. pneumoniae and P. aeruginosa; assay: Antimicrobial assay (MIC, growth inhibited by >90%), Examples 2 and 3; conditions: for efficacy (in words): Example 3, second octyl group, compared to the -NH2 peptides, Trp replaced

## CCCCCCCCCNC(=O)[C@H](CCCNC(=N)N)NC(=O)CCCCCCCC [Nonanoyl-Arg-NH-nonyl]
[1]
  MIC: ≦ 4 μg/ml
[2]; 1 μg/ml of peptide
  Growth was inhibited: 43%
[2]; 7.8 μg/ml
  Growth was inhibited: 83%
[2]; concentrations as low as 15.6 μg/ml
  Growth was inhibited: 98%

## CCCCCCCCNC(=O)[C@H](CCCNC(=N)N)NC(=O)[C@H](CCCNC(=N)N)NC(=O)CCCCCCC [Octanoyl-Arg-Arg-NH-octyl]
In vitro
  viability at 125 ppm: 59%

## CCCCCCCCNC(=O)[C@H](CCCNC(=N)N)NC(=O)CCCCCCC [Octanoyl-R-NH-octyl, Octanoyl-Arg-NH-octyl]
C. acidivorans
  MIC: >313 µg/mL
Aeromonas
  MIC: 62.5 µg/mL (≈ 152 µM)
Bacillus
  MIC: 15.6 µg/mL (≈ 37.9 µM)
[3]
  MIC: 62.5 to 125 µg/mL
X. maltophila
  MIC: ≦5 μg/ml
E. cloacae
  MIC: >313 µg/mL
P. aeruginosa
  MIC: ≦10 μg/ml

## Decanoyl-Arg-NH-decyl
E. coli
  MIC: ≦ 15 μg/ml

## Nonanoyl-Arg-Arg-NH-nonyl
E. coli
  MIC: ≦ 2 μg/ml

## Octanoyl-Arg-Ala-NH-octyl
[1]
  MIC: ≦ 15 μg/ml

## Octanoyl-Arg-Arg-Arg-NH-octyl
E. coli
  MIC: ≦ 8 μg/ml

## Octanoyl-Arg-Cys-NH-octyl
[1]
  MIC: ≦ 15 μg/ml

## Octanoyl-Arg-Phe-NH-octyl
[1]
  MIC: ≦ 8 μg/ml
[4]
  efficacy (in words): enhanced efficacy

## Octanoyl-Arg-Phe-Phe-Arg-NH-octyl (RFFR; HELM PEPTIDE1{[CCCCCCCC(=O)[*:2]].R.F.F.R.[CCCCCCCCN[*:1]]}$$$$V2.0; SMILES CCCCCCCCNC(=O)[C@H](CCCNC(=N)N)NC(=O)[C@H](Cc1ccccc1)NC(=O)[C@H](Cc1ccccc1)NC(=O)[C@H](CCCNC(=N)N)NC(=O)CCCCCCC)
E. coli
  MIC: ≦ 4 μg/ml

## Octanoyl-Arg-Trp-NH2
[1]
  MIC: ≦ 15 μg/ml
[4]; Example 2, acyl chain length and amino acid composition
  peptide efficacy (MIC values, in words): greatest activity
E. coli
  MIC: ≦ 15 μg/ml

## Octanoyl-Arg-Trp-Phe-NH2
[1]
  MIC: ≦ 15 μg/ml
E. coli
  MIC: ≦ 15 μg/ml

## Octanoyl-Arg-Tyr-NH-octyl
[4]
  efficacy (in words): enhanced efficacy

## Octanoyl-Lys-Arg-NH-octyl
[1]
  MIC: ≦ 4 μg/ml
